Here are results for two compounds from PMC6166228 (ACS Omega, 2018).

For orientation: Ki means a measure of affinity in units of concentration, obtained from inhibition or displacement. A high value points to weaker binding.

For data set [1] the following is noted: no species and reference not given; cited from earlier work.
For the next data set, the target named is T1, human AT1 receptor (Homo sapiens, UniProt P30556).
T1 sequence (P30556 1-359): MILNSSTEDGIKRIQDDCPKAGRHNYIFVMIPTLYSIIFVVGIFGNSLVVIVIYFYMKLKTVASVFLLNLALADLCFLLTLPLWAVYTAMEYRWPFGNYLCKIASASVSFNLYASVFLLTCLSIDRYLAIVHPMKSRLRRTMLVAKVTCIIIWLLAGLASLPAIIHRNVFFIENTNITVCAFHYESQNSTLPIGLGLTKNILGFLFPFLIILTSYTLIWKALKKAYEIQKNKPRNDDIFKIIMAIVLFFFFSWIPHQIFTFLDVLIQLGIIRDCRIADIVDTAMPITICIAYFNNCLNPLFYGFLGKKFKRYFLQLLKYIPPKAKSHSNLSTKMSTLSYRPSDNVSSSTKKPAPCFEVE
It is filed as binding.

Take `CCCCC(=O)N(Cc1ccc(-c2ccccc2-c2nnn[nH]2)cc1)[C@H](C(=O)O)C(C)C` [valsartan]: the average half-life result in data set [1] is given as “around 6 h”.
`CC(C)[C@@H](C(=O)O)N(Cc1ccc(-c2ccccc2-c2nnn[nH]2)cc1)C(=O)CCCCF` [FV45, (S)-2-(N-((2′-(1H-Tetrazol-5-yl)-[1,1′-biphenyl]-4-yl)methyl)-5-fluoropentanamido)-3-methylbutanoic Acid] registered an inhibition constant (Ki) on human AT1 receptor of 14.6 nM.
